Measured values published in the NIST ThermoML archive (doi:10.1016/j.jct.2010.08.021).

Test: mn = molality of the nth substance listed, in mol/kg
Settings: 101 kPa, Liquid; for speed of sound: Sing-around technique in a fixed-path interferometer; for mass density: Vibrating tube method

NCC(=O)O [2-aminoacetic acid] + O
Settings	mass density [kg/m3]	speed of sound [m/s]
288.15 K, m1 = 0.0303	1000.1	1468.3
288.15 K, m1 = 0.0407	1000.43	1468.9
288.15 K, m1 = 0.0487	1000.69	1469.4
288.15 K, m1 = 0.0549	1000.89	1469.7
288.15 K, m1 = 0.0649	1001.22	1470.3
288.15 K, m1 = 0.066	1001.25	1470.3
288.15 K, m1 = 0.0799	1001.7	1471.1
288.15 K, m1 = 0.0959	1002.22	1472
288.15 K, m1 = 0.1125	1002.76	1472.9
288.15 K, m1 = 0.1349	1003.48	1474.1
288.15 K, m1 = 0.1608	1004.3	1475.5
288.15 K, m1 = 0.1908	1005.26	1477.2
288.15 K, m1 = 0.2165	1006.07	1478.6
288.15 K, m1 = 0.2303	1006.51	1479.4
288.15 K, m1 = 0.2506	1007.15	1480.5
288.15 K, m1 = 0.2735	1007.87	1481.8
293.15 K, m1 = 0.0303	999.187	1484.4
293.15 K, m1 = 0.0407	999.52	1484.9
293.15 K, m1 = 0.0487	999.773	1485.4
293.15 K, m1 = 0.0549	999.972	1485.7
293.15 K, m1 = 0.0649	1000.29	1486.2
293.15 K, m1 = 0.066	1000.32	1486.3
293.15 K, m1 = 0.0799	1000.77	1487
293.15 K, m1 = 0.0959	1001.28	1487.9
293.15 K, m1 = 0.1125	1001.81	1488.8
293.15 K, m1 = 0.1349	1002.52	1489.9
293.15 K, m1 = 0.1608	1003.34	1491.3
293.15 K, m1 = 0.1908	1004.28	1493
293.15 K, m1 = 0.2165	1005.08	1494.4
293.15 K, m1 = 0.2303	1005.52	1495.1
293.15 K, m1 = 0.2506	1006.15	1496.2
293.15 K, m1 = 0.2735	1006.86	1497.4
298.15 K, m1 = 0.0303	–	1498.6
298.15 K, m1 = 0.0407	998.344	1499.1
298.15 K, m1 = 0.0487	–	1499.5
298.15 K, m1 = 0.0549	998.79	1499.9
298.15 K, m1 = 0.0649	999.104	1500.4
298.15 K, m1 = 0.066	999.138	1500.4
298.15 K, m1 = 0.0799	999.58	1501.2
298.15 K, m1 = 0.0959	1000.09	1502
298.15 K, m1 = 0.1125	1000.61	1502.9
298.15 K, m1 = 0.1349	1001.31	1504
298.15 K, m1 = 0.1608	1002.12	1505.3
298.15 K, m1 = 0.1908	1003.05	1506.9
298.15 K, m1 = 0.2165	1003.84	1508.2
298.15 K, m1 = 0.2303	1004.27	1508.9
298.15 K, m1 = 0.2506	1004.9	1510
298.15 K, m1 = 0.2735	1005.61	1511.2
303.15 K, m1 = 0.0303	996.608	1510.9
303.15 K, m1 = 0.0407	996.933	1511.4
303.15 K, m1 = 0.0487	–	1511.8
303.15 K, m1 = 0.0549	997.375	1512.2
303.15 K, m1 = 0.0649	–	1512.7
303.15 K, m1 = 0.066	–	1512.7
303.15 K, m1 = 0.0799	998.158	1513.4
303.15 K, m1 = 0.0959	998.661	1514.3
303.15 K, m1 = 0.1125	999.18	1515.1
303.15 K, m1 = 0.1349	999.878	1516.2
303.15 K, m1 = 0.1608	1000.67	1517.5
303.15 K, m1 = 0.1908	1001.6	1519
303.15 K, m1 = 0.2165	1002.38	1520.3
303.15 K, m1 = 0.2303	1002.81	1521
303.15 K, m1 = 0.2506	1003.43	1522
303.15 K, m1 = 0.2735	1004.13	1523.2
308.15 K, m1 = 0.0303	994.983	1521.5
308.15 K, m1 = 0.0407	–	1522
308.15 K, m1 = 0.0487	995.552	1522.5
308.15 K, m1 = 0.0549	–	1522.8
308.15 K, m1 = 0.0649	–	1523.3
308.15 K, m1 = 0.066	–	1523.3
308.15 K, m1 = 0.0799	–	1524
308.15 K, m1 = 0.0959	997.02	1524.8
308.15 K, m1 = 0.1125	997.536	1525.6
308.15 K, m1 = 0.1349	998.23	1526.7
308.15 K, m1 = 0.1608	999.021	1528
308.15 K, m1 = 0.1908	999.936	1529.5
308.15 K, m1 = 0.2165	1000.72	1530.7
308.15 K, m1 = 0.2303	1001.14	1531.4
308.15 K, m1 = 0.2506	1001.76	1532.4
308.15 K, m1 = 0.2735	1002.45	1533.5
313.15 K, m1 = 0.0303	993.159	1530.6
313.15 K, m1 = 0.0407	993.481	1531.1
313.15 K, m1 = 0.0487	993.725	1531.5
313.15 K, m1 = 0.0549	993.917	1531.8
313.15 K, m1 = 0.0649	994.224	1532.3
313.15 K, m1 = 0.066	994.257	1532.3
313.15 K, m1 = 0.0799	994.689	1533
313.15 K, m1 = 0.0959	995.187	1533.8
313.15 K, m1 = 0.1125	–	1534.6
313.15 K, m1 = 0.1349	–	1535.6
313.15 K, m1 = 0.1608	–	1536.9
313.15 K, m1 = 0.1908	998.083	1538.3
313.15 K, m1 = 0.2165	–	1539.5
313.15 K, m1 = 0.2303	999.28	1540.2
313.15 K, m1 = 0.2506	999.893	1541.2
313.15 K, m1 = 0.2735	1000.58	1542.3

N[C@@H](CO)C(=O)O [L-serine] + O
Settings	mass density [kg/m3]	speed of sound [m/s]
288.15 K, m1 = 0.0192	999.979	1467.9
288.15 K, m1 = 0.028	1000.38	1468.5
288.15 K, m1 = 0.037	1000.78	1468.9
288.15 K, m1 = 0.043	1001.05	1469.4
288.15 K, m1 = 0.0486	1001.3	1469.8
288.15 K, m1 = 0.057	1001.68	1470.3
288.15 K, m1 = 0.0657	1002.07	1470.9
288.15 K, m1 = 0.0804	1002.73	1471.8
288.15 K, m1 = 0.0942	1003.34	1472.7
288.15 K, m1 = 0.1156	1004.3	1474.1
288.15 K, m1 = 0.1329	1005.07	1475.2
288.15 K, m1 = 0.1535	1005.99	1476.6
288.15 K, m1 = 0.1642	1006.46	1477.3
288.15 K, m1 = 0.1789	1007.11	1478.3
288.15 K, m1 = 0.1944	1007.8	1479.2
293.15 K, m1 = 0.0192	999.07	1484
293.15 K, m1 = 0.028	999.466	1484.5
293.15 K, m1 = 0.037	999.867	1485
293.15 K, m1 = 0.043	1000.13	1485.4
293.15 K, m1 = 0.0486	1000.38	1485.8
293.15 K, m1 = 0.057	1000.75	1486.3
293.15 K, m1 = 0.0657	1001.14	1486.8
293.15 K, m1 = 0.0804	1001.79	1487.8
293.15 K, m1 = 0.0942	1002.4	1488.7
293.15 K, m1 = 0.1156	1003.35	1490
293.15 K, m1 = 0.1329	1004.11	1491.1
293.15 K, m1 = 0.1535	1005.02	1492.4
293.15 K, m1 = 0.1642	1005.49	1493.1
293.15 K, m1 = 0.1789	1006.13	1494
293.15 K, m1 = 0.1944	1006.81	1495
298.15 K, m1 = 0.0192	997.9	1498.2
298.15 K, m1 = 0.028	998.291	1498.8
298.15 K, m1 = 0.037	998.691	1499.2
298.15 K, m1 = 0.043	998.951	1499.6
298.15 K, m1 = 0.0486	999.198	1500
298.15 K, m1 = 0.057	999.564	1500.5
298.15 K, m1 = 0.0657	999.952	1501
298.15 K, m1 = 0.0804	1000.6	1501.9
298.15 K, m1 = 0.0942	1001.2	1502.7
298.15 K, m1 = 0.1156	1002.14	1504
298.15 K, m1 = 0.1329	1002.89	1505.1
298.15 K, m1 = 0.1535	1003.79	1506.4
298.15 K, m1 = 0.1642	1004.26	1507
298.15 K, m1 = 0.1789	1004.89	1507.9
298.15 K, m1 = 0.1944	1005.57	1508.8
303.15 K, m1 = 0.0192	996.495	1510.5
303.15 K, m1 = 0.028	996.883	1511.1
303.15 K, m1 = 0.037	997.277	1511.5
303.15 K, m1 = 0.043	997.539	1511.9
303.15 K, m1 = 0.0486	997.781	1512.3
303.15 K, m1 = 0.057	998.143	1512.8
303.15 K, m1 = 0.0657	998.53	1513.2
303.15 K, m1 = 0.0804	999.17	1514.1
303.15 K, m1 = 0.0942	999.763	1514.9
303.15 K, m1 = 0.1156	1000.7	1516.2
303.15 K, m1 = 0.1329	1001.45	1517.2
303.15 K, m1 = 0.1535	1002.34	1518.5
303.15 K, m1 = 0.1642	1002.8	1519.1
303.15 K, m1 = 0.1789	1003.43	1520
303.15 K, m1 = 0.1944	1004.1	1520.8
308.15 K, m1 = 0.0192	994.871	1521.2
308.15 K, m1 = 0.028	995.258	1521.7
308.15 K, m1 = 0.037	995.648	1522.1
308.15 K, m1 = 0.043	995.908	1522.5
308.15 K, m1 = 0.0486	996.152	1522.9
308.15 K, m1 = 0.057	996.512	1523.4
308.15 K, m1 = 0.0657	996.896	1523.8
308.15 K, m1 = 0.0804	997.529	1524.7
308.15 K, m1 = 0.0942	998.119	1525.5
308.15 K, m1 = 0.1156	999.047	1526.7
308.15 K, m1 = 0.1329	999.793	1527.7
308.15 K, m1 = 0.1535	1000.68	1528.9
308.15 K, m1 = 0.1642	1001.14	1529.5
308.15 K, m1 = 0.1789	1001.76	1530.3
308.15 K, m1 = 0.1944	1002.43	1531.2
313.15 K, m1 = 0.0192	993.05	1530.3
313.15 K, m1 = 0.028	993.434	1530.8
313.15 K, m1 = 0.037	993.821	1531.2
313.15 K, m1 = 0.043	994.079	1531.6
313.15 K, m1 = 0.0486	994.322	1532
313.15 K, m1 = 0.057	994.68	1532.4
313.15 K, m1 = 0.0657	995.061	1532.8
313.15 K, m1 = 0.0804	995.691	1533.7
313.15 K, m1 = 0.0942	996.279	1534.4
313.15 K, m1 = 0.1156	997.203	1535.7
313.15 K, m1 = 0.1329	997.943	1536.6
313.15 K, m1 = 0.1535	998.827	1537.8
313.15 K, m1 = 0.1642	999.283	1538.4
313.15 K, m1 = 0.1789	999.905	1539.2
313.15 K, m1 = 0.1944	1000.57	1540
